Test results taken from article PMC11511111, “Scoliidines: Neuroprotective Peptides in Solitary Scoliid Wasp Venoms” (Toxins, 2024).
Where no end group is shown, it is not given here.

How the values were obtained:
[1] = system: PC12 cells; experiment: PC12 cytotoxicity (crystal violet cell viability); format: cell-based; details: result in words
Procedure: Figure 2 Cytotoxic effects of γ-, δ- and ε-scoliidines on PC12 viability. The cells were exposed to peptides at different concentrations and times. The control and DMSO groups correspond to cells that have not been treated and cells that have been treated with a 5% concentration of DMSO, respectively. […] Statistical analysis was conducted using a one-way analysis of variance (ANOVA), followed by Dunnett’s post-test. The statistical difference when compared to the control group (p < 0.05) was indicated by asterisks.
(§1) All chemicals used here were analytical reagent grade (purity higher than 95%) purchased from different brands. The AChE enzyme was derived from Electrophorus electricus Type VI-S, and the ACE I enzyme was derived from rabbit lung and was acquired from Sigma-Aldrich Corporation (St. Louis, MO, USA). Neprilysin and the substrates [Abz-FRK (Dnp) P-OH and Abz-RGFK (Dnp)-OH] were supplied by Prof. Adriana Carmona from the Department of Biophysics at Federal University of São Paulo (SP, Brazil). PC12 cell (American Type Culture Collection ® CRL-1721™; Manassas, VA, USA) was used in the present study. Cells were routinely cultured in DMEM medium (Sigma-Aldrich Corporation; St. Louis, MO, USA), according to a previous study.
The cytotoxicity assay was performed using the staining of attached cells with crystal violet dye, according to the literature. Briefly, PC12 cells (5 × 10^3 cells per well; 96-well plates) were treated with different concentrations and times. Untreated cells or treated with DMSO (5%; v·v^−1) were included as controls. We measured the absorbance of dye solubilized in methanol at 570 nm using a microplate reader (BioTek Instruments, Inc., Winooski, VT, USA). We collected data from three distinct examinations, each performed three times, showing the percentage of cell viability relative to the control.
All results are shown as mean ± SD from three separate experiments (n = 3) in triplicate. One-way analysis of variance (ANOVA) was used for between-group comparisons, and Dunnett’s post-hoc test was used for multiple comparisons. Statistical significance was defined as p < 0.05. The analyses were done using GraphPad Prism 6.0 (GraphPad Software, Inc., La Jolla, CA, USA).

[2] = system: PC12 neuronal cells; experiment: PC12 mitochondrial metabolism (MTT reduction) / neuroprotection against H2O2-induced oxidative stress; format: cell-based; details: H2O2 0.5 mmol·L^−1, 20 h, percent compared to control group, oxidative stress model
Procedure: PC12 cells were pre-treated with γ-, δ- or ε-scoliidines for 4 h and then exposed to γ-, δ- or ε-scoliidines containing H2O2 for an additional 20 h, providing a protective model (Figure 3A). Cells subjected to a 20-h exposure to H2O2 represent an oxidative stress model.
Figure 3 Neuroprotective property of γ-, δ- and ε-scoliidines on mitochondrial metabolism of the PC12 cell line against H2O2-induced oxidative stress. (A) The experiment involved treating cells (5 × 10^3 cells per well in a 96-well plate) with γ, δ, and ε scoliidines (1 μmol·L^−1) for 4 h at 37 °C. After that, the medium was changed with a solution containing peptide (1 μmol·L^−1) and H2O2 (0.5 mmol·L^−1), and the cells were incubated for an additional 20 h. (B) Protective effects of peptides against neurotoxicity caused by oxidative stress. […]
PC12 cells (5 × 10^3 cells per well) seeded in a 96-well plate (Nest Biotechnology, Rahway, NJ, USA) were used to study the neuroprotective effects of peptides against H2O2-induced oxidative stress, according to a previous study. […] The mitochondrial metabolism was analyzed by 3-(4,5-dimethylthiazol-2-yl)-2,5-diphenyltetrazolium bromide (MTT; 0.5 mg·mL^−1 for 3 h of incubation at 37 °C) reduction assay. The absorbance of the MTT formazan dissolved in 100% DMSO was measured at a wavelength of 540 nm using a spectrophotometer (BioTek Instruments, Inc., Winooski, VT, USA). […]

[3] = system: acetylcholinesterase (AChE); experiment: Acetylcholinesterase (AChE) activity, Ellman's method; format: biochemical, Electrophorus electricus; details: compared to control (100 ± 1.6%), mean ± SD
Excerpt: Figure 4 Effects of γ-, δ- and ε-scoliidines on the function of acetylcholinesterase (AChE). The AChE activity was quantified as a percentage of hydrolyzed acetylthiocholine iodine substrate compared to the control (C; blank box). The data obtained from three separate experiments, each performed three times, is presented as mean ± SD.
as §1
The inhibition of AChE activity was determined spectrophotometrically based on Ellman’s method, as previously reported. We calculated AChE activity as the hydrolyzed acetylthiocholine iodide substrate concentration as a percentage of control.
All results are shown as mean ± SD from three separate experiments (n = 3) in triplicate. […]

[4] = system: PC12 neuronal cells; details: result in words, ref [25]; cited from earlier work
Excerpt: (§2) In recent years, our investigation has focused on scoliid wasp venoms. Scoliid wasps hunt and sting beetle larvae under the ground. Comprehensive LC-MS and MS/MS analysis of the venom extract from Scolia decorata ventralis identified two major peptide components named α- and β-scoliidine. […] This is the first case of solitary wasp venom peptides showing neuroprotective activity. Similarly, venom components of Campsomeriella annulata annulata were in ...

[5] = system: angiotensin-converting enzyme (ACE); experiment: Peptide stability / cleavage by angiotensin-converting enzyme; format: in vitro ADME, rabbit; details: relative hydrolysis ratio; peptide 30 µmol·L^−1, ACE 7.5 ng, 37 °C, 4 h
Excerpt: as §1
(§3) The stability tests of peptides (30 µmol·L^−^1) were tested after incubation separately with ACE and NEP (7.5 ng) at 37 °C for 4 h, according to previous reports.

[6] = system: human neprilysin (NEP); experiment: Peptide stability / cleavage by neprilysin; format: in vitro ADME; details: relative hydrolysis ratio; peptide 30 µmol·L^−1, NEP 7.5 ng, 37 °C, 4 h
Excerpt: as §1, §3

[7] = system: neuronal PC12 cells; details: result in words, ref [26]; cited from earlier work
Excerpt: as §2

[8] = system: acetylcholine (ACh) receptors of insect central nervous system; details: result in words; insects' central nervous system; ref [18],[19],[20]; cited from earlier work
Excerpt: Scoliid wasp venoms were the first solitary wasp venoms to be studied between the years 1987 and 1990, and the presence of bradykinin-related peptides was reported. […] Since the f ...

[9] = all concentrations and times assessed, 570 nm

Molecule: C[S+](C)[O-] [DMSO, reference compound]
- cell viability with DMSO ([1]; DMSO 5% (v·v^−1)): decrease in cell viability

Molecule: OO [H2O2]
- mitochondrial metabolism of PC12 cells treated only with H2O2 [2]: 75.8 ± 2.4%

Molecule: CCOP(=O)(OCC)OP(=O)(OCC)OCC [TEPP, tetraethyl pyrophosphate]
- AChE activity with positive control [3]: 27.8 ± 6.5%

Molecule: DYVTVKGFSPLR [α-scoliidine]
- neuroprotective effect against oxidative stress-induced neurotoxicity [4]: only β-scoliidine showed a neuroprotective effect

Molecule: DYVTVKGFSPLREP [ε-scoliidine]
- cell viability ([1]; 0.01 μmoL·L^−1, up to 6 h of treatment, 570 nm, three experiments in triplicate): enhanced cell viability
- cell viability ([1]; 10 μmoL·L^−1, 24 h, 570 nm, three experiments in triplicate): cell viability decreased
- concentration dependence of decrease in cell viability ([1]; 570 nm): decrease in cell viability was dependent on the concentration
- Cleavage (%) ACE [5]: <0.01%
- Cleavage (%) NEP [6]: <0.01%

Molecule: DYVTVKGFSPLRKA [β-scoliidine]
- Cleavage (%) ACE [5]: <0.01%
- Cleavage (%) NEP [6]: <0.01%

Molecule: PRLRRLTGLSPLR [α-campsomerin]
- cell growth potentiating effect [7]: showed a cell growth potentiating effect

Molecule: PRLRRLTGLSPLRAP [β-campsomerin]
- cell growth potentiating effect [7]: had no effect

Molecule: RPPGFSPFR [bradykinin, reference compound]
- Cleavage (%) ACE [5]: 100%
- Cleavage (%) NEP [6]: 100%

Molecule: RPPGFTPFR [Thr^6-bradykinin]
- blocking action on ACh receptors [8]: showing a blocking action on ACh receptors

Molecule: RPPGFTPFRKA [Megascoliakinin]
- blocking action on ACh receptors [8]: showing a blocking action on ACh receptors

Molecule: YVTVKGFSPLR [γ-scoliidine]
- cell viability [1, 9]: cell viability remained unchanged
- Cleavage (%) ACE [5]: <0.01%
- Cleavage (%) NEP [6]: <0.01%

Molecule: YVTVKGFSPLREP [δ-scoliidine]
- cell viability [1, 9]: cell viability remained unchanged
- Cleavage (%) ACE [5]: <0.01%
- Cleavage (%) NEP [6]: <0.01%
